Source: patent US20240082340A1 (Biohaven Therapeutics Ltd., priority 2021, published 2024)

Legend:
[1] = taken with meals; cited from earlier work
[2] = system: patients diagnosed with Alzheimer's disease of mild-to-moderate severity; assay: T2 Protect AD trial: ADAS-Cog 11; type: in vivo, human; settings: for ADAS-Cog Total Score, Model Estimates, LSMean (SE): change from baseline; for ADAS-Cog Total Score, Model Estimates, LSMean (SE) Difference: placebo vs troriluzole
Excerpt: (§1) The ADAS-Cog 11 evaluates memory (word recall, word recognition), reasoning (following commands), language (naming, comprehension), orientation, ideational praxis (placing a letter in an envelope) and constructional praxis (copying geometric designs). Ratings of spoken language, language comprehension, word finding difficulty, and ability to remember test instructions are also obtained. The test is scored in terms of errors, with higher scores reflecting poorer performance and greater impairment. Scores can range from 0 (best) to 70 (worse).
The primary efficacy endpoint is the within-participant change in ADAS-Cog 11 from baseline to week 48, compared between the treatment group and the placebo group.
as §1, with “11 (Rosen, Mohs, & Davis, 1984) is a structured scale that” for “11”
(§2) The T2 Protect AD trial has been conducted, which is a Phase 2/3, randomized, double-blind, placebo-controlled study evaluating the efficacy and safety of troriluzole in patients diagnosed with Alzheimer's disease of mild-to-moderate severity (Mini-Mental State Examination [MMSE] scores of 14-24; mild: 20-24, moderate: 14-19).

[3] = system: patients diagnosed with Alzheimer's disease of mild-to-moderate severity; assay: T2 Protect AD trial: CDR-Sum of Boxes; type: in vivo, human; settings: Week 48; for CDR01-Sum of Boxes, Model Estimates, LSMean (SE) Difference: placebo vs troriluzole
Excerpt: The CDR-SOB (Hughes, Berg, Danziger, Coben, & Martin, 1982) is a validated composite rating of cognition and everyday functioning used in longitudinal AD research which incorporates both informant input and direct assessment of performance. It assesses through semi structured interview 3 cognitive domains including memory, orientation, and judgement/problem solving and 3 everyday functional domains including community affairs, home and hobbies and personal care. There are 5 levels of impairment from none CDR=0 to severe CDR=3. The individual domain scores are added to create a sum of the box scores.
as §2

[4] = system: patients diagnosed with Alzheimer's disease of mild-to-moderate severity; assay: T2 Protect AD trial: volumetric MRI hippocampal volume (Quarc); type: in vivo, human; settings: for Hippocampal Volume Change, Model Estimates, LSMean (SE) Difference: Week 48, placebo vs troriluzole
Excerpt: vMRI allows the in vivo assessment of brain structure volume and provides a measure of atrophy rate. […] Atrophy of the medial temporal lobe, including hippocampus and entorhinal cortex, has long been described in vMRI studies of AD. Hippocampal volume derived from MRI correlates with histological hippocampal volume and degree of neuronal loss and AD pathology, and entorhinal cortical thickness change appears to be an early and sensitive indicator of neurodegeneration associated with AD (Holland et al., 2009; Jack et al., 2004).
Participants will undergo vMRI scans of the brain at screening, week 24 and week 48 in order to assess for changes in brain volumes that may be associated with clinical change due to treatment with BHV-4157.
Volumetric MRI scans will use the same imaging protocol, which will include a localizer scan, a 3D T1-weighted sagittal acquisition (MPRAGE or IR-SPGR), a T2-weighted FLAIR axial acquisition, a T2* gradient recalled echo axial acquisition for magnetic susceptibility, and a diffusion weighted axial acquisition to assess for restricted diffusion.
Images will be checked for image quality and adherence to scanning protocols. 3D T1-weighted datasets passing quality checks will be corrected for spatial distortion and for intensity variation. Screening and follow-up datasets for each participant will be spatially registered to one another using rigid-body registration followed by nonlinear registration and neuroanatomic parcellation to quantify whole-brain and subregional volumetric change on a patient-by patient basis.
Whole brain volume (WBV, excluding cerebellum), bilateral ventricular volume and bilateral hippocampal volume will be measured. Quantitative anatomical regional change (Quarc) will be used as the computational MR image processing application. Detail for the statistical computations is given in the Statistical Analytical Plan (SAP).
as §2

[5] = system: patients diagnosed with Alzheimer's disease of mild-to-moderate severity; assay: T2 Protect AD trial: Neuropsychiatric Inventory (NPI); type: in vivo, human; settings: for NPI score LS mean change, difference versus placebo: after 48 weeks, troriluzole minus placebo
Excerpt: The NPI is a well-validated, reliable, multi-item instrument to assess psychopathology in AD dementia based on the results of an interview with the study partner (Cummings, 1997). The NPI evaluates both the frequency and severity of 10 neuropsychiatric features, including delusions, hallucinations, agitation/aggression, dysphoria, anxiety, euphoria, apathy, disinhibition, irritability and lability, and aberrant motor behavior, as well as evaluates sleep and appetite/eating disorders. Frequency assessments range from 1 (occasionally, less than once per week) to 4 (very frequently, once or more per day or continuously). Severity assessments range from 1 (mild) to 3 (severe). The score for each subscale is the product of severity and frequency and the total score is the sum of all subscales.
as §2

[6] = Week 48, mild-to-moderate AD, 280 mg once daily
[7] = after 48 weeks, mild AD, placebo minus troriluzole

Nc1nc2ccc(OC(F)(F)F)cc2s1 [Riluzole, riluzole]
food effect on exposure [1]: reduced exposure when taken with meals

CN(CC(=O)Nc1nc2ccc(OC(F)(F)F)cc2s1)C(=O)CNC(=O)CN [Troriluzole, troriluzole]
ADAS-Cog Total Score, Model Estimates, LSMean (SE) ([2]; Week 48, mild AD patients only): 4.2
ADAS-Cog Total Score, Model Estimates, LSMean (SE) [2, 6]: 6.7 (0.70)
ADAS-Cog Total Score, Change from Baseline, Mean (SD) ([2]; Week 48, mild AD patients only): 3.9
ADAS-Cog Total Score, Analysis Value, Mean (SD) ([2]; Week 48, mild AD patients only, 280 mg once daily): 26.2
outcome on co-primary endpoint ADAS-cog ([2]; Week 48, mild-to-moderate AD): did not meet the study's pre-specified co-primary endpoints
ADAS-Cog Total Score, Change from Baseline, Mean (SD) [2, 6]: 5.8 (7.40)
ADAS-Cog Total Score, Change from Baseline, Median [2, 6]: 6.0
ADAS-Cog Total Score, Model Estimates, LSMean (SE) Difference ([2]; Week 48, mild AD patients only): 0.7 (1.02)
ADAS-Cog Total Score, Model Estimates, LSMean (SE) Difference ([2]; Week 48, mild-to-moderate AD): 0.0 (0.93)
ADAS-Cog11 score LS mean change, difference versus placebo [2, 7]: 0.7 points
outcome on co-primary endpoint CDR-SB ([3]; mild-to-moderate AD): did not meet the study's pre-specified co-primary endpoints
CDR01-Sum of Boxes, Model Estimates, LSMean (SE) Difference ([3]; mild AD patients only): −0.3 (0.40)
CDR01-Sum of Boxes, Model Estimates, LSMean (SE) Difference ([3]; mild-to-moderate AD): −0.2 (0.28)
Hippocampal Volume Change, Model Estimates, LSMean (SE) Difference ([4]; mild AD patients only): −0.5 (0.38)
Hippocampal Volume Change, Model Estimates, LSMean (SE) Difference ([4]; mild-to-moderate AD): 0.0 (0.26)
hippocampal volume LS mean percent deformation change, difference versus placebo [4, 7]: −0.5%
key secondary measure of hippocampal volume assessed by MRI, versus placebo ([4]; overall population): did not differentiate from placebo
NPI across subgroups versus placebo ([5]; Week 48, only mild AD, only moderate AD, only ApoE4 positive, only ApoE4 negative patients): numerical differences of a potential benefit
NPI score LS mean change, difference versus placebo ([5]; mild AD): −2.1 points
NPI score LS mean change, difference versus placebo ([5]; mild-to-moderate AD): −1.5 points
